From article PMC11477482 (Molecules, 2024) come the findings set out here.

In this test the test system is RAW264.7 cells (mitochondrial O2− production). As to the kind of experiment: Mitochondrial antioxidant activity (MitoSOX, rotenone-induced superoxide). The class given is cell-based, mouse. The conditions noted are these: rotenone 20 μM alone, oxidative stress inducer. The protocol: The human keratinocytes (HaCaT, CLS 300493, Eppelheim, Germany) cell line was cultured with Dulbecco’s Modified Eagle’s Medium (DMEM) (Sigma-Aldrich, St. Louis, MO, USA), supplemented with 10% (v/v) of heat-inactivated fetal bovine serum (FBS), 1% (v/v) antibiotic solution (from a 10,000 U/mL penicillin and 10,000 μg/mL streptomycin stock) (Gibco, Carlsbad, CA, USA), 3.7 g/L sodium bicarbonate, and 1 mM sodium pyruvate (Sigma-Aldrich, St. Louis, MO, USA). The cell culture of keratinocytes was detached with EDTA solution 1X (Sigma-Aldrich, St. Louis, MO, USA) when the cells reached 70–80% confluence in cell culture flasks. The mouse macrophage cell line (RAW 264.7, ATCC TIB-71, Manassas, VA, USA) was cultured in DMEM supplemented with 10% (v/v) non-inactivated FBS, 1% (v/v) antibiotic solution, 1.5 g/L sodium bicarbonate, and 1 mM sodium pyruvate. Macrophages were mechanically detached with a cell scraper and subcultured in (1:10) proportion of cellular suspension to a final volume of DMEM. The human monocytic cell line THP-1 (ATCC® TIB-202™, American Type Culture Collection, Manassas, VA, USA) was cultivated in RPMI 1640 supplemented with 10% inactivated FBS, 25 mM (D)-glucose, 10 mM HEPES, 1 mM sodium pyruvate, 100 U/mL penicillin, and 100 μg/mL streptomycin, and maintained at a cell density of 0.4 × 10^6 cells/mL. Cells were subcultured every 2 or 3 days and maintained in culture for 2–3 months, according to ATCC® instructions.
Mitochondrial superoxide (O2^−) generation was determined using the MitoSOX Red kit, according to the manufacturer’s instructions. Briefly, 5.0 × 10^5 cells/mL were plated in a 12-well plate and incubated for 24 h at 37 °C. The cells were then exposed to the AA, AAG and AAGS solution (500 µM), and after 1 h, rotenone (20 μM) was added, followed by incubation for an additional 5 h. The cells were then carefully detached, transferred to microtubes, and centrifuged at 500× g for 3 min. The cell pellet was washed with HBSS solution (2 × 1 mL), resuspended in PBS solution, and 300 µL was collected in two microtubes for unstained (150 µL) and stained (150 µL) conditions. The stained cells were incubated with 100 μL of freshly prepared MitoSOX solution 2.5 µM at 37 °C for 15 min in the dark. The stained cells were washed with HBSS solution (2 × 1 mL), and the cell pellet was resuspended in 100 μL of PBS and analyzed by flow cytometry using a BD Accuri™ C6 cytometer (San Jose, CA, USA).
CD86 and CD54 levels were analyzed by flow cytometry using the acquisition channels FL1 and FL4. Mitochondrial O2^− production was measured by flow cytometry using the acquisition channel FL2. The relative fluorescence intensity (RFI) of CD86 and CD54 (THP-1 maturation assay) and MitoSOX (mitochondrial antioxidant activity) in the control and chemical-treated cells, based on the geometric mean fluorescence intensity (MFI), was calculated according to the following equation: RFI=MFI of chemical treated cells−MFI of chemical treated unstained cells/MFI of control treated cells−MFI of control unstained cells ×100

With `C=C(C)[C@H]1Cc2c(ccc3c2O[C@@H]2COc4cc(OC)c(OC)cc4[C@@H]2C3=O)O1` [Rotenone], the “relative fluorescence intensity (RFI) of MitoSOX” value worked out at 269.70 ± 11.63%.
